According to patent US20260102460A1, “NOVEL COMBINATIONS OF ANTIBIOTICS AND NON-ANTIBIOTIC DRUGS EFFECTIVE IN VIVO AGAINST GRAM-POSITIVE BACTERIA, IN PARTICULAR METHICILLIN-RESISTANT S. AUREUS (MRSA)” (EUROPEAN MOLECULAR BIOLOGY LABORATORY, priority 2022, published 2026):
Entries after “also recorded” stand apart in the source; their conditions may differ.

Assays:
S. aureus DSM 20231 = assay: Adjuvant (extended non-antibiotic) combination screen; assay type: cell-based, Staphylococcus aureus
Description: MICs were tested in all strains for the main screen. Drugs were two-fold serially diluted in 11 concentrations, and 32 no-drug control wells were included in each plate. Experiments were conducted in 384-well plates (ref. 781271 by Greiner BioOne), with a total volume of 30 μl for S. aureus and B. subtilis and 55 μl for S. pneumoniae. Volumes were optimized for each strain to achieve good dynamic range for growth and minimize risk of cross-contamination between wells. Plates were inoculated with a starting optical density at 595 nm (OD595 nm) of 0.01 from an overnight culture. All liquid handling was performed using a Biomek FX liquid handler (Beckman Coulter). Plates were sealed with breathable membranes and incubated at 37° C. OD595 nm was measured every 30 minutes for 14 hours. The MIC was considered as the first concentration at which growth was inhibited. Experiments were conducted in biological duplicates. For the adjuvant screen, antibiotics were tested in S. aureus DSM 20231 at the same concentrations as for the main screen. Non-antibiotics concentrations were selected to fall within therapeutic ranges.
62 drugs, hereafter designated as recipients, were arrayed in 384-well plates (ref. 781271 by Greiner BioOne) in three two-fold serial dilutions and two technical replicates. Concentrations were selected according to MICs, with the highest concentration corresponding to the MIC, and the intermediate and lowest concentration corresponding to ½ and ¼ MIC, respectively. Plates were kept frozen and defrosted upon each experimental run, when the same 62 drugs and in the same three concentrations were added as donor drugs (one drug at one concentration for each recipient plate). A few drugs were screened only as donors: the combinations co-amoxiclav and cotrimoxazole in B. subtilis and S. aureus DSM 20231; co-amoxiclav, clavulanic acid, pseudomonic acid and cefuroxime in S. aureus Newman. All donor drugs were tested in two biological replicates. Control wells were included in each plate (six no-drug wells, three plain medium wells and three wells containing only the donor drug). After the addition of donor drugs, plates were inoculated with cells. Handling, inoculation, growth conditions, plate incubation and OD595 nm measurements were performed as for the MIC determination.
For the adjuvant screen, 44 non-antibiotic drugs were tested against the same recipient drugs of the main screen for S. aureus DSM 20231.
The inventors selected 44 drugs to include pharmaceuticals that can be co-administered with antibiotics in S. aureus infections or non-antibiotics with previously reported antibacterial activity against S. aureus. […] Interactions were scored and benchmarked as for the main screen (Methods).

S. aureus Newman [1] = assay: Two-dimensional thermal proteome profiling (2D-TPP), whole cell and lysate; assay type: cell-based, Staphylococcus aureus; settings: for thermal stability of ATP- and GTP-binding enzymes and transporters: ticagrelor 0.04-4 μg/ml
MRSA clinical isolates = assay: 8×8 broth microdilution checkerboard assays; assay type: cell-based, Staphylococcus aureus; settings: MSSA and MRSA
Source text: Drug interaction networks in S. aureus, with drugs grouped according to their class (a) or targeted cellular process (b). Unique interactions across both strains tested are considered (i=331). Edge thickness represents the proportion of interactions for each node pair, considering all possible interactions given the number of drugs in each node. Nodes depict the drug class (a) or the targeted cellular process (b), and size is proportional to the number of drugs in the represented class/process. Only interacting drugs are considered (d=62). Synergies, antagonisms and nodes are colored according to FIG. 1. c. Novel and previously reported interactions detected in S. aureus. Interactions are considered known if reported in any S. aureus strain (Supplementary Table 4). d-e. Novel synergies are effective against MRSA clinical isolates in vitro (d) and in vivo in the G. mellonella infection model (e). […] The percentage of surviving larvae after treatment and in the untreated controls was monitored over time. […]
Combinations were tested in the same experimental conditions as for the screen, but at higher concentration resolution: drugs were diluted in eight concentrations spanning linearly-space gradients to assemble 8×8 checkerboards for each combination tested. […] Data was analyzed with the same pipeline as for the screen (Methods).

S. aureus Newman [2] = assay: Cytochrome c binding assay (cell surface charge); assay type: cell-based, Staphylococcus aureus; settings: ticagrelor 10 and 5 μg/ml for 20 minutes
Description: The cytochrome c binding assay was conducted as previously described (Radlinski, L. C. et al. Chemical Induction of Aminoglycoside Uptake Overcomes Antibiotic Tolerance and Resistance in Staphylococcus aureus. Cell Chem Biol 26, 1355-1364.e4 (2019)). Briefly, overnight cultures of S. aureus Newman were diluted 1:1000 in 20 ml of TSB medium and grown in flasks at 37° C. with continuous shaking until they reached OD578 nm˜0.45. Samples were then incubated in the same conditions with or without 10 and 5 μg/ml ticagrelor for 20 minutes. Samples were centrifuged at 10000 g for 15 minutes, washed twice with 20 mM MOPS buffer (pH 7) and concentrated to reach a final A578 of 10 in a 96 well-plate (ref. 4483481, Applied Biosystems™) containing cytochrome c (0.25 mg/ml, ref. 101467, MP Bio) or MOPS buffer (FIG. 5g). The plate was incubated in the dark at room temperature for 10 minutes. The cell pellets were collected, and the amount of cytochrome c in the supernatant was determined spectrophotometrically at an OD410 nm. Two-fold dilutions of cytochrome c in the same plate, starting from 256 μg/ml, were used to obtain a standard curve onto which a linear model was fitted to calculate cytochrome c concentrations in the other wells. Results are expressed as unbound cytochrome c fraction in the supernatants. Experiments were conducted in four biological replicates.

MRSA = settings: ticagrelor 10 μg/mL combined with vancomycin 4 μg/mL; cited from earlier work

CCCSc1nc(N[C@@H]2C[C@H]2c2ccc(F)c(F)c2)c2nnn([C@@H]3C[C@H](OCCO)[C@@H](O)[C@H]3O)c2n1 [ticagrelor]
number of synergies (S. aureus DSM 20231; S. aureus, non-antibiotic drugs with antibiotics): 13 | number of interactions (S. aureus DSM 20231; among the 44 non-antibiotics tested, against panel of 62 drugs, S. aureus DSM 20231): 27 | abundance of purine biosynthesis enzymes (PurC, PurD, PurE, PurF, PurK, PurL, PurM, PurN, PurQ) (S. aureus Newman [1]; live cells): induction | thermal stability of DltC and DltD (LTA D-alanylation) (S. aureus Newman [1]; lysate): destabilized | thermal stability of ClfA, ClfB, coagulase Coa and vWBP (S. aureus Newman [1]; lysate, clinically-relevant ticagrelor concentration): destabilization | thermal stability of ATP- and GTP-binding enzymes and transporters (S. aureus Newman [1]; lysate): destabilization | thermal stability of TagG (WTA translocase subunit) (S. aureus Newman [1]; whole cell sample): destabilized | thermal stability of ATP- and GTP-binding enzymes and transporters (S. aureus Newman [1]; whole cell): destabilization | abundance of ClfA, ClfB, coagulase Coa and vWBP (S. aureus Newman [1]; whole-cell samples, clinically-relevant ticagrelor concentration): downregulation | interaction with gentamicin at growth inhibition level (MRSA clinical isolates; MRSA isolate resistant to tigecycline (FIG. 5c), ticagrelor combined with gentamicin): sensitized; also recorded: synergizes | sensitization to cationic peptide nisin (MRSA clinical isolates; ticagrelor combined with nisin): sensitized | binding of positively-charged cytochrome C to intact S. aureus cells (S. aureus Newman [2]): increased | initial MRSA inoculum killed (MRSA): approximately 50%
